Paper PMC5675120 (Nature chemical biology, 2017)
Where no end group is shown, it is not given here. The star is where a group is joined. FITC = O=C1OC2(c3ccc(O)cc3Oc3cc(O)ccc32)c2ccc(NC(=S)*)cc21

Experiments:
BAX = BAX (Homo sapiens, UniProt Q07812); test: STD NMR; assay type: binding
[1] = target: T1, BCL-2-associated X protein (BAX), recombinant, full-length, monomeric (human, UniProt Q07812 1-192); test: fluorescence polarisation
[2] = target: T1, BCL-2-associated X protein (BAX), …; test: competition STD NMR

Chain of BAX (Q07812 whole entry): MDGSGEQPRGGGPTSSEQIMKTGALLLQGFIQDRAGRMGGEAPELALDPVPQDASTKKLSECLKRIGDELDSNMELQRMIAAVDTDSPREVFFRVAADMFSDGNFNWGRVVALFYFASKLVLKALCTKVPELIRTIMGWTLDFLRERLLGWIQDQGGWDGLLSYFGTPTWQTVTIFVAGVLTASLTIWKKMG
T1 sequence (Q07812 whole entry): as above

Molecule	STD NMR; liposomal release sensitization (BAX)	further results
Oc1cccc(Oc2ccccc2)c1 [compound 2, 3-phenoxyphenol]	all retain BAX-binding activity as assessed by STD NMR, and demonstrate BAX-sensitization activity	
Oc1ccc(Cc2ccccc2)cc1 [compound 3, 4-benzylphenol]	all retain BAX-binding activity as assessed by STD NMR, and demonstrate BAX-sensitization activity	
Nc1ccc(Oc2ccccc2)cc1 [compound 4, 4-phenoxyaniline]	all retain BAX-binding activity as assessed by STD NMR, and demonstrate BAX-sensitization activity	
{FITC}-EALKKALRRHRFLWQRRQRA [FITC-vMIA peptide (aa 131-150)]		binding result [1]: binds
EALKKALRRHRFLWQRRQRA [vMIA peptide (aa 131-150), as used in competition STD NMR]		binding result [2]: binds
